Assay: Solubility of the compound of formula (I) as a function of time in aqueous solvents (HPLC)
Assay type: physicochemical
Conditions: thermodynamic from solid; for solubility at 1 h / solubility at 2 h / solubility at 4 h / solubility at 24 h / solubility at 48 h / solubility at 0.5 h: 25° C. water bath, agitated; for solubility at 0.5 h: ½ hr; for solubility at 7 days: kept at room temperature with no agitation
Method: The sample vials were pulled out at each time point, the pH was measured and the sample was filtered a 0.45 μm PTFE membrane filter. The filtrate was appropriately diluted with the dilution solvent and the concentration of the compound was measured using HPLC. HPLC conditions were as follows: Method: Isocratic method, 70% mobile phase A −30% mobile phase B; Column: Supelco Discovery HS-C18, 3 μm, 4.6×150mm; Mobile Phase A: 0.05% TFA in water; B: 0.05% TFA in acetonitrile; Flow rate: 1.0 mL/min; Detection: UV: Wavelength: 240 nm, bandwidth 4 nm; Reference wavelength: 450 nm, bandwidth 80 nm; Run time: 6 min; Injection volume: 10 μL.

[1] = aqueous buffer, 0.1N NaOH (pH ˜12.8)
[2] = aqueous buffer, borate buffer pH 8
[3] = aqueous buffer, borate buffer pH 10
[4] = aqueous buffer, citrate buffer pH 2
[5] = aqueous buffer, citrate buffer pH 4
[6] = aqueous buffer, citrate buffer pH 6
[7] = simulated gastric fluid, 0.1N HCl
[8] = simulated intestinal fluid (SIF), fassgf or other biorelevant, SIF (pH ˜6.75)

Structure (SMILES): Cc1cnc(NCC(F)(F)c2ccccc2)c(=O)n1CC(=O)NCCONC(=N)N [compound of formula (I), N-[2-[[(diaminomethylene)amino]oxy]ethyl]-3-[(2,2-difluoro-2-phenylethyl)amino]-6-methyl-2-oxo-1(2H)-pyrazineacetamide]
- solubility at 1 h [1]: 980 µg/mL
- solubility at 2 h [1]: 980 µg/mL
- solubility at 4 h [1]: 1000 µg/mL
- solubility at 24 h [1]: 1000 µg/mL
- solubility at 48 h [1]: 990 µg/mL
- solubility at 0.5 h [1]: 920 µg/mL
- solubility at 4 h [2]: 1300 µg/mL
- solubility at 24 h [2]: 1200 µg/mL
- solubility at 48 h [2]: 1200 µg/mL
- solubility at 4 h [3]: 1000 µg/mL
- solubility at 24 h [3]: 1000 µg/mL
- solubility at 48 h [3]: 1000 µg/mL
- solubility at 1 h [4]: 8700 µg/mL
- solubility at 2 h [4]: 8800 µg/mL
- solubility at 4 h [4]: 10400 µg/mL
- solubility at 24 h [4]: 6900 µg/mL
- solubility at 48 h [4]: 7500 µg/mL
- solubility at 7 days [4]: 4000 µg/mL
- solubility at 0.5 h [4]: 7600 µg/mL
- solubility at 1 h [5]: 2400 µg/mL
- solubility at 2 h [5]: 2800 µg/mL
- solubility at 4 h [5]: 2500 µg/mL
- solubility at 24 h [5]: 2700 µg/mL
- solubility at 48 h [5]: 2700 µg/mL
- solubility at 0.5 h [5]: 2100 µg/mL
- solubility at 1 h [6]: 1800 µg/mL
- solubility at 2 h [6]: 1800 µg/mL
- solubility at 4 h [6]: 2000 µg/mL
- solubility at 24 h [6]: 1600 µg/mL
- solubility at 48 h [6]: 1500 µg/mL
- solubility at 7 days [6]: 1300 µg/mL
- solubility at 0.5 h [6]: 2100 µg/mL
- solubility at 1 h [7]: 40200 µg/mL
- solubility at 2 h [7]: 40900 µg/mL
- solubility at 4 h [7]: 43000 µg/mL
- solubility at 24 h [7]: 40400 µg/mL
- solubility at 48 h [7]: 39200 µg/mL
- solubility at 7 days [7]: 26900 µg/mL
- solubility at 0.5 h [7]: 31600 µg/mL
- solubility (simulated intestinal fluid (SIF), 25 °C, pH 6.75, fassgf or other biorelevant): 2700 to 2800 µg/mL
- solubility at 4 h [8]: 2800 µg/mL
- solubility at 24 h [8]: 2700 µg/mL
- solubility at 48 h [8]: 2700 µg/mL
- solubility at 4 h (water (pH ˜9)): 1100 µg/mL
- solubility at 24 h (water (pH ˜9)): 1100 µg/mL
- solubility at 48 h (water (pH ˜9)): 1100 µg/mL
